Test results: ChEMBL document CHEMBL4602604, “A Selective and Brain Penetrant p38αMAPK Inhibitor Candidate for Neurologic and Neuropsychiatric Disorders That Attenuates Neuroinflammation and Cognitive Dysfunction” (J Med Chem, 2019)
Active and inactive are the calls of the source.

Tests used:
[1] = biological target: cGMP-inhibited 3',5'-cyclic phosphodiesterase 3A (Homo sapiens, UniProt Q14432); experiment: Inhibition of human PDE3A at 10 uM
[2] = biological target: D(2) dopamine receptor (Homo sapiens) (UniProt P14416); experiment: Inhibition of human D2S receptor at 10 uM
Cytochrome P450 3A4 [3] = biological target: T1, Cytochrome P450 3A4 (Homo sapiens, UniProt P08684); experiment: Inhibition of human recombinant CYP3A4 at 10 uM incubated for 10 to 30 mins in presence of CYP-specific probe BFC substrate by LC-MS/MS analysis; format: ADME; conditions: recombinant enzyme
T1 sequence (P08684 whole entry): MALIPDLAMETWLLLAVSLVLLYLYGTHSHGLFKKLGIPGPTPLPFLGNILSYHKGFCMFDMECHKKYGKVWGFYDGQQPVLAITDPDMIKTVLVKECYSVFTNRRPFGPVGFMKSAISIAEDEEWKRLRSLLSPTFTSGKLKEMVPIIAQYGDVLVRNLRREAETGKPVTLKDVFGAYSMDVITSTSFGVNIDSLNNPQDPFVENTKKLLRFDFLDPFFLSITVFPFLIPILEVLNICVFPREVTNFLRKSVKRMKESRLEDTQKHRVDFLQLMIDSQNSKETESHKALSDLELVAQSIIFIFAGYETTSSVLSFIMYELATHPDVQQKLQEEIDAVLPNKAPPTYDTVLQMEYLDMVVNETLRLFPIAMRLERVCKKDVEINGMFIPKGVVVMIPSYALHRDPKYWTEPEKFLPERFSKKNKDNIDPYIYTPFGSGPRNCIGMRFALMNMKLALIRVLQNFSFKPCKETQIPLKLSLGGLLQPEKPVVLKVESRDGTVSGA

[4] = biological target: 5-hydroxytryptamine receptor 2A (Homo sapiens) (UniProt P28223); experiment: Inhibition of human 5HT2A receptor at 10 uM
Mus musculus [5] = experiment: Suppression of human recombinant tau-induced memory impairment in C57Bl/6 mouse model of oligomeric tau infusion model assessed as attenuation of deficits in spatial and associative memory performance at 5 mg/kg, ip dosed 20 mins prior to start of testing by contextual fear conditioning assay; format: functional, organism-based
[6] = biological target: 5-hydroxytryptamine receptor 1A (Homo sapiens) (UniProt P08908); experiment: Inhibition of human 5HT1A receptor at 10 uM
[7] = biological target: Adenosine receptor A2a (Homo sapiens) (UniProt P29274); experiment: Inhibition of human adenosine A2A receptor at 10 uM
[8] = Toxicity in wild type mouse assessed as induction of abnormalities in liver at 250 mg/kg; format: organism-based; conditions: in vivo
[9] = biological target: Glutamate NMDA receptor (Rattus norvegicus) (UniProt P35439+Q00959+Q00960+Q00961+Q62645+Q8VHN2+Q9R1M7); experiment: Inhibition of rat NMDA receptor at 10 uM; format: protein-complex assay
[10] = biological target: Cholecystokinin receptor type A (Homo sapiens) (UniProt P32238); experiment: Inhibition of human CCK1 receptor at 10 uM
[11] = biological target: 3',5'-cyclic-AMP phosphodiesterase 4D (Homo sapiens) (UniProt Q08499); experiment: Inhibition of human PDE4D2 at 10 uM
in vivo = conditions: mouse, po
Description: Toxicity in orally dosed wild type mouse dosed daily for 14 days

[12] = biological target: Cannabinoid receptor 1 (Homo sapiens) (UniProt P21554); experiment: Inhibition of human CB1 receptor at 10 uM
Mus musculus [13] = experiment: Suppression of human recombinant tau-induced memory impairment in C57Bl/6 mouse model of oligomeric tau infusion model assessed as attenuation of deficits in spatial and associative memory performance at 5 mg/kg, ip dosed 20 mins prior to start of testing by radial arm water maze test; format: functional, organism-based
in vitro [14] = conditions: human, hepatocytes
Description: Half life in human hepatocytes at 1 uM by LC-MS/MS analysis

[15] = biological target: Glucocorticoid receptor (Homo sapiens) (UniProt P04150); experiment: Inhibition of human glucocorticoid receptor at 10 uM
[16] = biological target: Histamine H2 receptor (Homo sapiens) (UniProt P25021); experiment: Inhibition of human histamine H2 receptor at 10 uM
[17] = biological target: 5-hydroxytryptamine receptor 3A (Homo sapiens) (UniProt P46098); experiment: Inhibition of human 5HT3 receptor at 10 uM
Acetylcholinesterase = Acetylcholinesterase (Homo sapiens, UniProt P22303); experiment: Inhibition of human acetyl cholinesterase at 10 uM
Sequence of Acetylcholinesterase (P22303 whole entry): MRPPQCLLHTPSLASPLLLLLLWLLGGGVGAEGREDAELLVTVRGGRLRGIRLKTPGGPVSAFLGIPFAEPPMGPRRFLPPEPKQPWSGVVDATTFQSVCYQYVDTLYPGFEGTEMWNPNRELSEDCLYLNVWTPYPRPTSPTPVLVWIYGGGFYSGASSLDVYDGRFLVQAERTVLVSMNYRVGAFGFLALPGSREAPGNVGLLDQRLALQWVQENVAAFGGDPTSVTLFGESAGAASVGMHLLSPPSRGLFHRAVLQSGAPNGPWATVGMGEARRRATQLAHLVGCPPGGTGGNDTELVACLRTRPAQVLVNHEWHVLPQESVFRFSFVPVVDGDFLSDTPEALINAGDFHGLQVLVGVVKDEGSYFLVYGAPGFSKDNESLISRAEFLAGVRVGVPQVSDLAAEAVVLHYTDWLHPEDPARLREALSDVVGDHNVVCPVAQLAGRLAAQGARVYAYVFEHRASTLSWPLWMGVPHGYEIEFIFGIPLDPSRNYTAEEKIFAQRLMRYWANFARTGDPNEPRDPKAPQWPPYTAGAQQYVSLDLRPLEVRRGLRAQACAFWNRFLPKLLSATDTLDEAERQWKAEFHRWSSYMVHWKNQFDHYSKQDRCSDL

Mus musculus [18] = experiment: Suppression of cognitive dysfunction in transgenic rTg4510 mouse model assessed as prevention of cortical tissue loss at […], po dosed every other day for 45 days; format: functional, organism-based
[19] = biological target: Muscarinic acetylcholine receptor M3 (Homo sapiens) (UniProt P20309); experiment: Inhibition of human muscarinic M3 receptor at 10 uM
[20] = biological target: Vasopressin V1a receptor (Homo sapiens) (UniProt P37288); experiment: Inhibition of human V1A receptor at 10 uM
Cytochrome P450 2D6 = Cytochrome P450 2D6 (Homo sapiens, UniProt P10635); experiment: Inhibition of human recombinant CYP2D6 at 10 uM incubated for 10 to 30 mins in presence of CYP-specific probe MFC substrate by LC-MS/MS analysis; format: ADME; conditions: recombinant enzyme
Sequence of Cytochrome P450 2D6 (P10635 whole entry): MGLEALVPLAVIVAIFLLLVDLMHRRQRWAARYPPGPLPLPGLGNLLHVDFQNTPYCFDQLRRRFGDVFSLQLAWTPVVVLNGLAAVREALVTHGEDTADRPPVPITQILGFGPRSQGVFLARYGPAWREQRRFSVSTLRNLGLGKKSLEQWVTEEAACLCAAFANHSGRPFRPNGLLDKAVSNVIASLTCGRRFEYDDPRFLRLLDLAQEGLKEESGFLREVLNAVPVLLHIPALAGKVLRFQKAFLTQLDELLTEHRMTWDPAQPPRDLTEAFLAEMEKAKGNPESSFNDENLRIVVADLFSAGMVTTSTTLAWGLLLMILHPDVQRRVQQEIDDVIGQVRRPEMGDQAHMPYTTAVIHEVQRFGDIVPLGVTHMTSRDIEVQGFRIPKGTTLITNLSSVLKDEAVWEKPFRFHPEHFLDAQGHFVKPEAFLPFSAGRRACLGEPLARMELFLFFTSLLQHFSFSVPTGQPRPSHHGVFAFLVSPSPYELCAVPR

[21] = biological target: 5-hydroxytryptamine receptor 1B (Homo sapiens) (UniProt P28222); experiment: Inhibition of human 5HT1B receptor at 10 uM
[22] = biological target: Prostaglandin G/H synthase 1 (Homo sapiens, UniProt P23219); experiment: Inhibition of human COX1 at 10 uM
Sequence of Prostaglandin G/H synthase 1 (P23219 whole entry): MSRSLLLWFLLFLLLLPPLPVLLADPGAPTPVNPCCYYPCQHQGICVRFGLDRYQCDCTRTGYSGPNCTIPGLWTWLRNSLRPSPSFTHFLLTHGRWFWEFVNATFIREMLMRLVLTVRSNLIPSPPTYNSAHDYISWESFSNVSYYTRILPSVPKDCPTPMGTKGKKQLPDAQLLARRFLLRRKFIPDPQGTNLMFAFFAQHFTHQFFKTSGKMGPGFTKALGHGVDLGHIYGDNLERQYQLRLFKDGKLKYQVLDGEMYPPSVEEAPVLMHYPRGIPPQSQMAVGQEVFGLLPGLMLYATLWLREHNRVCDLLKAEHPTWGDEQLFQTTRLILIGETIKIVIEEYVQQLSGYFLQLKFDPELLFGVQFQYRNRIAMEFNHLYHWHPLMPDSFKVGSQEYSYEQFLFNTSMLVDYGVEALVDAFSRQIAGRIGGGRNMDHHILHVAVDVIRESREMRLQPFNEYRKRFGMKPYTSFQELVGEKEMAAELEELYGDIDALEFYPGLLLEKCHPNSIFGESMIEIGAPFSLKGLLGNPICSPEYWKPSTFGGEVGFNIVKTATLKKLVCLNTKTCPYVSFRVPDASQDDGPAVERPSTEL

[23] = biological target: Voltage-gated L-type calcium channel (Rattus norvegicus, UniProt P22002+Q02485+P27732); experiment: Inhibition of rat L-type calcium channel at 10 uM; format: protein assay
[24] = biological target: Prostaglandin G/H synthase 2 (Homo sapiens, UniProt P35354); experiment: Inhibition of human COX2 at 10 uM
[25] = biological target: GABA-A receptor; anion channel (Rattus norvegicus) (UniProt O09028+P15431+P18506+P18508+P19969+P20236+P23574+P23576+P28471+P28473+P30191+P62813+P63079+P63138+Q91ZM7+Q9ES14); experiment: Inhibition of rat GABAA receptor at 10 uM; format: protein-complex assay
Mus musculus [26] = experiment: Suppression of cognitive dysfunction in transgenic rTg4510 mouse model assessed as prevention of hippocampal tissue loss at […], po dosed every other day for 45 days; format: functional, organism-based
[27] = biological target: Sodium-dependent noradrenaline transporter (Homo sapiens) (UniProt P23975); experiment: Inhibition of human norepinephrine transporter at 10 uM
Mus musculus [28] = experiment: Effect on memory function in C57Bl/6 mouse at 5 mg/kg, ip dosed 20 mins prior to start of testing by radial arm water maze test; format: ADME, organism-based; conditions: in vivo
[29] = Toxicity in APP/PS1 knock-in mouse assessed as induction of abnormalities in liver at 250 mg/kg; format: organism-based; conditions: in vivo
[30] = biological target: Kappa-type opioid receptor (Homo sapiens) (UniProt P41145); experiment: Inhibition of human OP2 receptor at 10 uM
[31] = biological target: D(1A) dopamine receptor (Homo sapiens) (UniProt P21728); experiment: Inhibition of human DRD1 receptor at 10 uM
Rattus norvegicus [32] = organism: Rattus norvegicus; experiment: Inhibition of rat potassium channel at 10 uM
[33] = biological target: Amine oxidase [flavin-containing] A (Rattus norvegicus, UniProt P21396); experiment: Inhibition of rat MAOA at 10 uM
[34] = Permeability in MDCK cells expressing BCRP at 5 uM by LC-MS/MS analysis; format: ADME, cell-based, Canis lupus familiaris; conditions: dog
[35] = biological target: 5-hydroxytryptamine receptor 2B (Homo sapiens) (UniProt P41595); experiment: Inhibition of human 5HT2B receptor at 10 uM
Cytochrome P450 2C19 = Cytochrome P450 2C19 (Homo sapiens, UniProt P33261); experiment: Inhibition of human recombinant CYP2C19 at 10 uM incubated for 10 to 30 mins in presence of CYP-specific probe CEC substrate by LC-MS/MS analysis; format: ADME; conditions: recombinant enzyme
Sequence of Cytochrome P450 2C19 (P33261 whole entry): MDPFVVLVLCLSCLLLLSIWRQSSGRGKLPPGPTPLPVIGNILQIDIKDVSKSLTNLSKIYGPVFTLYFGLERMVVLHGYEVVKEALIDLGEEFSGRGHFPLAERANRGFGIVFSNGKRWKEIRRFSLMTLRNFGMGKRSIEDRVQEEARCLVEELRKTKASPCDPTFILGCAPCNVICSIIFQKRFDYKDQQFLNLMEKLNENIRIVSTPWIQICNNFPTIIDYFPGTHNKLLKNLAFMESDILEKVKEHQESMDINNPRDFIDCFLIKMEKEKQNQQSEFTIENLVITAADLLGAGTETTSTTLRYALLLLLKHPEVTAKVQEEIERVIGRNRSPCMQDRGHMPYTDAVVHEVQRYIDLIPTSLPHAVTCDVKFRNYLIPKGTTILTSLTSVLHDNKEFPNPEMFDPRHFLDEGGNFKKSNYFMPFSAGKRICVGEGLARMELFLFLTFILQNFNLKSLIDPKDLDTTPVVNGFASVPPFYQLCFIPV

[36] = biological target: Beta-2 adrenergic receptor (Homo sapiens) (UniProt P07550); experiment: Inhibition of human adrenergic beta2 receptor at 10 uM
Sequence of Beta-2 adrenergic receptor (Homo sapiens) (P07550 whole entry, looked up): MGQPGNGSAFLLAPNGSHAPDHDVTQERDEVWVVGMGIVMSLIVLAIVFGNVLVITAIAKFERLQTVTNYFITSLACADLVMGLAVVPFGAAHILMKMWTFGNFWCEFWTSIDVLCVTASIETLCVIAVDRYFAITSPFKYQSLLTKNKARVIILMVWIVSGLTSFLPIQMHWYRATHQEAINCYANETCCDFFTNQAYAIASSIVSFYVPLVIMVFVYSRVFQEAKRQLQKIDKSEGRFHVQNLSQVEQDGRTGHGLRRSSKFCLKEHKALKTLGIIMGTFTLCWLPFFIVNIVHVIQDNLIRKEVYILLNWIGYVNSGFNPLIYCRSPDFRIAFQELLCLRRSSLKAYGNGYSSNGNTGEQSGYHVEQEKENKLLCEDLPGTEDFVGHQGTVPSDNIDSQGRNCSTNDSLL

[37] = biological target: Histamine H1 receptor (Homo sapiens) (UniProt P35367); experiment: Inhibition of human histamine H1 receptor at 10 uM
Mus musculus [38] = experiment: Suppression of cognitive dysfunction in transgenic rTg4510 mouse model assessed as reduction in errors at […], po dosed every other day for 45 days by radial arm water maze test; format: functional, organism-based
[39] = biological target: Neuronal acetylcholine receptor; alpha4/beta2 (Homo sapiens) (UniProt P17787+P43681); experiment: Inhibition of human alpha4beta2 nAChR receptor at 10 uM; format: protein-complex assay
[40] = biological target: Cannabinoid receptor 2 (Homo sapiens) (UniProt P34972); experiment: Inhibition of human CB2 receptor at 10 uM
[41] = biological target: Sodium-dependent dopamine transporter (Homo sapiens) (UniProt Q01959); experiment: Inhibition of human dopamine transporter at 10 uM
[42] = biological target: Amine oxidase [flavin-containing] B (Homo sapiens, UniProt P27338); experiment: Inhibition of human MAOB at 10 uM
Rattus norvegicus [43] = organism: Rattus norvegicus; experiment: Inhibition of rat sodium sodium channel at 10 uM
Mus musculus [44] = experiment: Suppression of cognitive dysfunction in transgenic rTg4510 mouse model assessed as rescue of freezing deficit at […], po dosed every other day for 45 days by contextual fear conditioning assay; format: functional, organism-based
[45] = biological target: Muscarinic acetylcholine receptor M1 (Homo sapiens) (UniProt P11229); experiment: Inhibition of human muscarinic M1 receptor at 10 uM
[46] = biological target: Mu-type opioid receptor (Homo sapiens) (UniProt P35372); experiment: Inhibition of human OP3 receptor at 10 uM
[47] = biological target: Alpha-2A adrenergic receptor (Homo sapiens) (UniProt P08913); experiment: Inhibition of human adrenergic alpha2a receptor at 10 uM
[48] = biological target: Delta-type opioid receptor (Homo sapiens) (UniProt P41143); experiment: Inhibition of human OP1 receptor at 10 uM
in vitro [49] = conditions: Beagle, dog, hepatocytes
Description: Half life in Beagle dog hepatocytes at 1 uM by LC-MS/MS analysis

Cytochrome P450 1A2 = Cytochrome P450 1A2 (Homo sapiens, UniProt P05177); experiment: Inhibition of human recombinant CYP1A2 at 10 uM incubated for 10 to 30 mins in presence of CYP-specific probe CEC substrate by LC-MS/MS analysis; format: ADME; conditions: recombinant enzyme
[50] = biological target: Alpha-1A adrenergic receptor (Homo sapiens) (UniProt P35348); experiment: Inhibition of human adrenergic alpha1a receptor at 10 uM
Cytochrome P450 2C9 = Cytochrome P450 2C9 (Homo sapiens, UniProt P11712); experiment: Inhibition of human recombinant CYP2C9 at 10 uM incubated for 10 to 30 mins in presence of CYP-specific probe MFC substrate by LC-MS/MS analysis; format: ADME; conditions: recombinant enzyme
Cytochrome P450 2C8 = Cytochrome P450 2C8 (Homo sapiens, UniProt P10632); experiment: Inhibition of human recombinant CYP2C8 at 10 uM incubated for 10 to 30 mins in presence of CYP-specific probe DBF substrate by LC-MS/MS analysis; format: ADME; conditions: recombinant enzyme
Cytochrome P450 2B6 = Cytochrome P450 2B6 (Homo sapiens, UniProt P20813); experiment: Inhibition of human recombinant CYP2B6 at 10 uM incubated for 10 to 30 mins in presence of CYP-specific probe EFC substrate by LC-MS/MS analysis; format: ADME; conditions: recombinant enzyme
Sequence of Cytochrome P450 2B6 (P20813 whole entry): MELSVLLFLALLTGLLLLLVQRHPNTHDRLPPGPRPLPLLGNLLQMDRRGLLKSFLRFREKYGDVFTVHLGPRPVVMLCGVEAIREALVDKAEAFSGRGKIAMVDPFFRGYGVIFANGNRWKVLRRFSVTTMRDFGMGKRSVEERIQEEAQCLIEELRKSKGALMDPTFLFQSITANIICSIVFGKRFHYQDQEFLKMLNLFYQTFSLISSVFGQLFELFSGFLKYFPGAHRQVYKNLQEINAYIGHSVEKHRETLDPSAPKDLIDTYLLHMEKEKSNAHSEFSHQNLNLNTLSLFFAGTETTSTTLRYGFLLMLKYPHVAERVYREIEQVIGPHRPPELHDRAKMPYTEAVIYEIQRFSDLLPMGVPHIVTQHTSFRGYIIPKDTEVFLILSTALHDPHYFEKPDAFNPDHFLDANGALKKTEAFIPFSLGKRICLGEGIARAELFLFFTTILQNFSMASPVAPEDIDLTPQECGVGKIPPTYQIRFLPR

[51] = biological target: Beta-1 adrenergic receptor (Homo sapiens) (UniProt P08588); experiment: Inhibition of human adrenergic beta1 receptor at 10 uM
Cytochrome P450 3A4 [52] = biological target: T1, Cytochrome P450 3A4; experiment: Inhibition of human recombinant CYP3A4 at 10 uM incubated for 10 to 30 mins in presence of CYP-specific probe BzRes substrate by LC-MS/MS analysis; format: ADME; conditions: recombinant enzyme
[53] = biological target: Sodium-dependent serotonin transporter (Homo sapiens) (UniProt P31645); experiment: Inhibition of human serotonin transporter at 10 uM
[54] = Permeability in human Caco2 cells at 5 uM by LC-MS/MS analysis; format: ADME, cell-based; conditions: caco-2, 5 µM
[55] = biological target: Androgen receptor (Homo sapiens) (UniProt P10275); experiment: Inhibition of human androgen receptor at 10 uM
[56] = human, microsomes, 1 µM

Sequence of cGMP-inhibited 3',5'-cyclic phosphodiesterase 3A (Q14432 whole entry): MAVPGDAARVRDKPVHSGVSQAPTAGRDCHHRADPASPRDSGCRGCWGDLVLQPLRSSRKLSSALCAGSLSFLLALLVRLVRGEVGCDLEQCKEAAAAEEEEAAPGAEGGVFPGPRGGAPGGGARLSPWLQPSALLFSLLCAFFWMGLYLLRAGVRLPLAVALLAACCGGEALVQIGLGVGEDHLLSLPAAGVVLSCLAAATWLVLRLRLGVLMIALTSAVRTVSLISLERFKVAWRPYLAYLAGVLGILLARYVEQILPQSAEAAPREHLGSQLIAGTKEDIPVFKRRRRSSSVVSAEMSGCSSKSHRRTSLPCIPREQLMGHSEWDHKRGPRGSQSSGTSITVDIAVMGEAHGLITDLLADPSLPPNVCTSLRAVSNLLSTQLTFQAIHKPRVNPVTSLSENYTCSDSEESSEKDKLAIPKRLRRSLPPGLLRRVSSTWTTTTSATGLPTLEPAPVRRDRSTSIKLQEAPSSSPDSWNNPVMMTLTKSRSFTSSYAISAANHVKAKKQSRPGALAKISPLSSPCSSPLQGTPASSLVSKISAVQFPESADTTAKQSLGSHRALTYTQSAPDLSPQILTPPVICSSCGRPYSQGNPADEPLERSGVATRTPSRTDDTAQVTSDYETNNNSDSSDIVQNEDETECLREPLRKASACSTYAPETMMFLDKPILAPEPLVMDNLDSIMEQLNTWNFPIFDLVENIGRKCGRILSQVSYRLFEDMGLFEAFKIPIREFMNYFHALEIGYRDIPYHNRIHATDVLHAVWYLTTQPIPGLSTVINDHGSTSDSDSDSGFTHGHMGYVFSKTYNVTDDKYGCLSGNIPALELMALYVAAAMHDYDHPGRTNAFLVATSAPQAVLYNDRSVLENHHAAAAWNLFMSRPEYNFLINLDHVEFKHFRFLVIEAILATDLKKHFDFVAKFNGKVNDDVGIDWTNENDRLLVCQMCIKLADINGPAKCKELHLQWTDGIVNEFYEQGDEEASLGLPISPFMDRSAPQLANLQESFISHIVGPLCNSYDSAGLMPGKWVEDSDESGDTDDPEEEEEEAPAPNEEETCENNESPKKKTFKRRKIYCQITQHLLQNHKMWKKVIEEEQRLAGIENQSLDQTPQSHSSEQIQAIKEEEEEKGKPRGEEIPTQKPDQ

CN1CCN(c2cc(-c3ccncc3)c(-c3ccc4ccccc4c3)nn2)CC1 [MW-150]
Permeable: permeability [34] | permeability [54]
Not Active: inhibition (INH) [1] | inhibition (INH) (Cytochrome P450 3A4 [3]) | inhibition (INH) (Acetylcholinesterase) | inhibition (INH) (Cytochrome P450 2D6) | inhibition (INH) [22] | inhibition (INH) [23] | inhibition (INH) [24] | inhibition (INH) [33] | inhibition (INH) (Cytochrome P450 2C19) | inhibition (INH) [42] | inhibition (INH) (Cytochrome P450 1A2) | inhibition (INH) (Cytochrome P450 2C9) | inhibition (INH) (Cytochrome P450 2C8) | inhibition (INH) (Cytochrome P450 2B6) | inhibition (INH) (Cytochrome P450 3A4 [52])
125 mg/kg: NOAEL at 336 h (in vivo)
inactive: inhibition [2] | inhibition [4] | inhibition [6] | inhibition [7] | inhibition [9] | inhibition [10] | inhibition [11] | inhibition [12] | inhibition [15] | inhibition [16] | inhibition [17] | inhibition [19] | inhibition [20] | inhibition [21] | inhibition [25] | Activity (Mus musculus [26]) | inhibition [27] | inhibition [30] | inhibition [31] | inhibition (Rattus norvegicus [32]) | inhibition [35] | inhibition [36] | inhibition [37] | inhibition [39] | inhibition [40] | inhibition [41] | inhibition (Rattus norvegicus [43]) | inhibition [45] | inhibition [46] | inhibition [47] | inhibition [48] | inhibition [50] | inhibition [51] | inhibition [53] | inhibition [55]
active: Activity (Mus musculus [5]) | Activity (Mus musculus [13]) | Activity (Mus musculus [18]) | Activity (Mus musculus [38]) | Activity (Mus musculus [44])
> 2 h: half-life at 1 µM (in vitro [14]) | half-life at 1 µM (in vitro [49])
Non-Toxic: Activity [8] | Activity (Mus musculus [28]) | Activity [29]

c1ccc2cc(-c3nnc(N4CCNCC4)cc3-c3ccncc3)ccc2c1
> 1 h: t1/2 [56]

c1ccc2cc(-c3nnc(N4CCCCC4)cc3-c3ccncc3)ccc2c1
0.1 h: t1/2 [56]
